US9120795B2, “Crystalline form of a β-lactamase inhibitor” (Cubist Pharmaceuticals, Inc., priority 2013, dated 2015)

Assay: Solid form stability at ambient conditions, XRPD
Type: physicochemical
Settings: sulfate; for transformation of the form at ambient conditions: storage at ambient conditions
Method: X-Ray Powder Diffraction patterns were collected on a Bruker D8 diffractometer using Cu Kα radiation (40 kV, 40 mA), 0-20 goniometer, and divergence of V4 and receiving slits, a Ge monochromator and a Lynxeye detector. The instrument is performance checked using a certified Corundum standard (NIST 1976). The software used for data collection was Diffrac Plus XRD Commander v2.6.1 and the data were analysed and presented using Diffrac Plus EVA v13.0.0.2 or v15.0.0.0. Samples were run under ambient conditions as flat plate specimens using powder as received. The sample was gently packed into a cavity cut into polished, zero-background (510) silicon wafer. The sample was rotated in its own plane during analysis. The details of the data collection are: angular range: 2 to 42 °2θ; step size: 0.05 °2θ; collection time: 0.5 s/step. Amorphous material (˜60 mg) was generated as in Procedure 1. The amorphous material was suspended in different solvent systems (3 mL) at 50° C. A sample was withdrawn after 3 h and 24 h. The final product was filtered after 48 h and analysed by XRPD. The solids isolated were re-analysed again by XRPD after few days at ambient conditions (˜25° C. and ˜40% RH).

Compound	stability of the form (Summary of Forms, Description)	transformation of the form at ambient conditions
O=C1N2C[C@@H](CC[C@H]2c2nnco2)N1OS(=O)(=O)[O-].[Na+] [Hydrate 5, sodium (2S,5R)-2-(1,3,4-oxadiazol-2-yl)-7-oxo-1,6-diazabicyclo[3.2.1]octan-6-yl sulfate]	Metastable, di-hydrate	–
O=C1N2C[C@@H](CC[C@H]2c2nnco2)N1OS(=O)(=O)[O-].[Na+] [Hydrate 7, sodium (2S,5R)-2-(1,3,4-oxadiazol-2-yl)-7-oxo-1,6-diazabicyclo[3.2.1]octan-6-yl sulfate]	Metastable, only isolated as a mixture	–
O=C1N2C[C@@H](CC[C@H]2c2nnco2)N1OS(=O)(=O)[O-].[Na+] [Hydrate 2, sodium (2S,5R)-2-(1,3,4-oxadiazol-2-yl)-7-oxo-1,6-diazabicyclo[3.2.1]octan-6-yl sulfate]	Metastable, hexa-hydrate	–
O=C1N2C[C@@H](CC[C@H]2c2nnco2)N1OS(=O)(=O)[O-].[Na+] [Hydrate 4, sodium (2S,5R)-2-(1,3,4-oxadiazol-2-yl)-7-oxo-1,6-diazabicyclo[3.2.1]octan-6-yl sulfate]	Metastable, suspected hemi-hydrate	metastable and transforms to Hydrate 1
O=C1N2C[C@@H](CC[C@H]2c2nnco2)N1OS(=O)(=O)[O-].[Na+] [Hydrate 3, sodium (2S,5R)-2-(1,3,4-oxadiazol-2-yl)-7-oxo-1,6-diazabicyclo[3.2.1]octan-6-yl sulfate]	Metastable, suspected mono-hydrate	metastable and transform to Hydrate 5 or Hydrate 1
O=C1N2C[C@@H](CC[C@H]2c2nnco2)N1OS(=O)(=O)[O-].[Na+] [Hydrate 6, sodium (2S,5R)-2-(1,3,4-oxadiazol-2-yl)-7-oxo-1,6-diazabicyclo[3.2.1]octan-6-yl sulfate]	Metastable, suspected mono-hydrate,	metastable and transform to Hydrate 5 or Hydrate 1
